In article PMC3271064, “Discrete Cyclic di-GMP-Dependent Control of Bacterial Predation versus Axenic Growth in Bdellovibrio bacteriovorus” (PLoS Pathogens, 2012):

Assays:
[1] = biological target: T1, DgcC (Bd1434) (Bdellovibrio bacteriovorus, UniProt Q6MN29); assay: diguanylyl cyclase assay, HPLC; format: biochemical; details: MBP-DgcC
T1 construct: MBP fusion, expressed in and purified from E. coli; MBP kept; natural GGEEF motif
T1 sequence (Q6MN29 1-408): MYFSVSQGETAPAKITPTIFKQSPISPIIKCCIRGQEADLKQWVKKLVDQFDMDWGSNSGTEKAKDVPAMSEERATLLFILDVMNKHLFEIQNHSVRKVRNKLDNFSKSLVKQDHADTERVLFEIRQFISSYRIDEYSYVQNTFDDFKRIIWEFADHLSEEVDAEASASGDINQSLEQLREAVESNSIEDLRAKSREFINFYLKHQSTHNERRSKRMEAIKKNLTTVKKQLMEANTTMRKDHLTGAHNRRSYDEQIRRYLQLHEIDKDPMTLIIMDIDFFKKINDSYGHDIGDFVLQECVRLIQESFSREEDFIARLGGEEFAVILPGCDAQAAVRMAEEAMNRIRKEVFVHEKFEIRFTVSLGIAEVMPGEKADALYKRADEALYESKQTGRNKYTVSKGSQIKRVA

[2] = biological target: T2, DgcB (Bd0742) (Bdellovibrio bacteriovorus, UniProt Q6MPU8); assay: diguanylyl cyclase assay, HPLC; format: biochemical; details: MBP-DgcB; activity only after about 30 min incubation at 37°C
T2 construct: MBP fusion, expressed in and purified from E. coli; MBP kept; copurifies with c-di-GMP
T2 sequence (Q6MPU8 1-320): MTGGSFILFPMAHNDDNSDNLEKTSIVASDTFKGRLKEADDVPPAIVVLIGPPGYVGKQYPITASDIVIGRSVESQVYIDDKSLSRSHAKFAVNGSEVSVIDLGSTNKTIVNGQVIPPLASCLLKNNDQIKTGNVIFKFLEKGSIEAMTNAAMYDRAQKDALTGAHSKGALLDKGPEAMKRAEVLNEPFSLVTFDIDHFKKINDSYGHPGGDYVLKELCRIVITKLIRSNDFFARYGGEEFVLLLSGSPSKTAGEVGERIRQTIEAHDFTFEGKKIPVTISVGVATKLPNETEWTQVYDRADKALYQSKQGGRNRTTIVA

[3] = biological target: T3, DgcA (Bd0367) (Bdellovibrio bacteriovorus, UniProt Q6MQU2); assay: diguanylyl cyclase assay, HPLC; format: biochemical; details: MBP-DgcA
T3 construct: gene pleD; MBP fusion, expressed in and purified from E. coli; MBP kept
T3 sequence (Q6MQU2 1-343): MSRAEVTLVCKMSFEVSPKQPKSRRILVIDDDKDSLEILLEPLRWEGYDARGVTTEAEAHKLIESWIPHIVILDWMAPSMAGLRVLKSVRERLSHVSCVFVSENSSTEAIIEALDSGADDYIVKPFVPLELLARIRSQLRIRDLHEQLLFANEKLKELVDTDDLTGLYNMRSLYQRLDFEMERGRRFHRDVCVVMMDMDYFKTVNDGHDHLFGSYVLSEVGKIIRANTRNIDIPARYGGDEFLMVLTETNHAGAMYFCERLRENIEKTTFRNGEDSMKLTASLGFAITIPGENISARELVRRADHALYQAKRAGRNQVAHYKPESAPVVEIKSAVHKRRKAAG

[4] = biological target: T4, CdgA (Bd3125) (Bdellovibrio bacteriovorus, UniProt Q6MIM9); assay: equilibrium dialysis; format: binding; details: read-out: apparent Kd
T4 construct: MBP fusion, expressed in and purified from E. coli; MBP kept; degenerate GVNEF motif is natural
T4 sequence (Q6MIM9 1-496): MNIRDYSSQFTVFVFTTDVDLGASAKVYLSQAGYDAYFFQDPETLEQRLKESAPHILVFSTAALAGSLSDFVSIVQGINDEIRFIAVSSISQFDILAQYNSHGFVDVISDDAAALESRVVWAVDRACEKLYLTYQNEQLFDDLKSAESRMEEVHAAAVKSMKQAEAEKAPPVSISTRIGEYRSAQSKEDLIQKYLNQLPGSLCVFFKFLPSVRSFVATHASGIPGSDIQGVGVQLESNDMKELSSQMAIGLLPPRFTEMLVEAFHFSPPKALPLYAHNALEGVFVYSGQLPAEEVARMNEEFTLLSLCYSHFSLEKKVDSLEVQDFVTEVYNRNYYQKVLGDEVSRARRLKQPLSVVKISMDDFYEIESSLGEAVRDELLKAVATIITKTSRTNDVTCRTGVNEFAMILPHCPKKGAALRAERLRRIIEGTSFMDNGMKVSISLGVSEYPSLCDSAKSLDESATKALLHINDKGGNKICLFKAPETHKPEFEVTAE

SMILES | diguanylyl cyclase assay, HPLC [1] | diguanylyl cyclase assay, HPLC [2] | diguanylyl cyclase assay, HPLC [3] | diguanylyl cyclase assay, HPLC ([1]; from GTP) | Kd [4] [nM] | diguanylyl cyclase assay, HPLC ([3]; from GTP)
Nc1nc2c(ncn2[C@@H]2O[C@H](COP(=O)(O)OP(=O)(O)OP(=O)(O)O)[C@@H](O)[C@H]2O)c(=O)[nH]1 [GTP] | DgcA, DgcB and DgcC proved to function as diguanylyl cyclases (Figure 1A–C) | DgcA, DgcB and DgcC proved to function as diguanylyl cyclases (Figure 1A–C) | DgcA, DgcB and DgcC proved to function as diguanylyl cyclases (Figure 1A–C) | – | – | –
Nc1nc2c(ncn2[C@@H]2O[C@@H]3COP(=O)(O)O[C@H]4[C@@H](O)[C@H](n5cnc6c(=O)[nH]c(N)nc65)O[C@@H]4COP(=O)(O)O[C@H]3[C@H]2O)c(=O)[nH]1 [c-di-GMP] | – | – | – | HPLC profiles show peaks of c-di-GMP (product) and GTP (substrate) | ~2000 | HPLC profiles show peaks of c-di-GMP (product) and GTP (substrate)
